Reference: patent publication US10246466B2, “Diaryl macrocycles as modulators of protein kinases” (TP THERAPEUTICS, INC., priority 2014, dated 2019)

Columns and labels:
JAK3 = JAK3 (Homo sapiens (Human), UniProt P52333); assay: KINOMEscan kinase binding assay (DiscoveRx)
Procedure: (§1) Kinase binding assays were performed at DiscoveRx using the general KINOMEscan Kd Protocol (Fabian, M. A. et al., “A small molecule-kinase interaction map for clinical kinase inhibitors,” Nat. Biotechnol. 2005, 23(3):329-36). For most assays, kinase-tagged T7 phage strains were prepared in an E. coli host derived from the BL21 strain. E. coli were grown to log-phase and infected with T7 phage and incubated with shaking at 32° C. until lysis. The lysates were centrifuged and filtered to remove cell debris. The remaining kinases were produced in HEK-293 cells and subsequently tagged with DNA for qPCR detection. Streptavidin-coated magnetic beads were treated with biotinylated small molecule ligands for 30 minutes at room temperature to generate affinity resins for kinase assays. The liganded beads were blocked with excess biotin and washed with blocking buffer (SeaBlock (Pierce), 1% BSA, 0.05% Tween 20, 1 mM DTT) to remove unbound ligand and to reduce nonspecific binding. […] All reactions were performed in polystyrene 96-well plates in a final volume of 0.135 mL. […] The beads were then re-suspended in elution buffer (1×PBS, 0.05% Tween 20, 0.5 μM non-biotinylated affinity ligand) and incubated at room temperature with shaking for 30 minutes. The kinase concentration in the eluates was measured by qPCR.

TRKB = TRKB (Homo sapiens (Human), UniProt Q16620); assay: KINOMEscan kinase binding assay (DiscoveRx)
Procedure: as §1

PLK4 kinase = PLK4 kinase (Homo sapiens (Human), UniProt O00444); assay: KINOMEscan kinase binding assay (DiscoveRx); details: read-out: binding affinity with PLK4 kinase (Kd)
Procedure: as §1

TRKA = TRKA (Homo sapiens (Human), UniProt P04629); assay: KINOMEscan kinase binding assay (DiscoveRx)
Chain of TRKA (P04629 33-796): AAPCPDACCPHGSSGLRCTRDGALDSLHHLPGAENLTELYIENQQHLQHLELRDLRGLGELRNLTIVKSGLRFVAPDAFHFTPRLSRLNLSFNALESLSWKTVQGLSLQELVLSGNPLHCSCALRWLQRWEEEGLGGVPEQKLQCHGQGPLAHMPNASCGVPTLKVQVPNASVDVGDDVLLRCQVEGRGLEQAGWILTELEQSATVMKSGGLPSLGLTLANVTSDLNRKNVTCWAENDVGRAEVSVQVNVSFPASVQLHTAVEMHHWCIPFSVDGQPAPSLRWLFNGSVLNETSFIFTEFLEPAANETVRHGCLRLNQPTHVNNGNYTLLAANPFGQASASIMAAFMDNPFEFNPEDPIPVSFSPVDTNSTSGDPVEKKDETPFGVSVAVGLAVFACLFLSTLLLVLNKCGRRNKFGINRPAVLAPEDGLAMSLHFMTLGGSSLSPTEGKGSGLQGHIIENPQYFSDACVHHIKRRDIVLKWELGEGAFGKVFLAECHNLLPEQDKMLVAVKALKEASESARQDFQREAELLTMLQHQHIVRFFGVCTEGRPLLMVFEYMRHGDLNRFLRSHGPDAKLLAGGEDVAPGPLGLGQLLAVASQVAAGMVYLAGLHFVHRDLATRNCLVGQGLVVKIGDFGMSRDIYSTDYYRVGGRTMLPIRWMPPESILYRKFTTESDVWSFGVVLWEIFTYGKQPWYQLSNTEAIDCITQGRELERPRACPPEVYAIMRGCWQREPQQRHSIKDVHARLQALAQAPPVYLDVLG
Procedure: as §1

JAK1 = JAK1 (Homo sapiens (Human), UniProt P23458); assay: KINOMEscan kinase binding assay (DiscoveRx)
Chain of JAK1 (P23458 whole entry): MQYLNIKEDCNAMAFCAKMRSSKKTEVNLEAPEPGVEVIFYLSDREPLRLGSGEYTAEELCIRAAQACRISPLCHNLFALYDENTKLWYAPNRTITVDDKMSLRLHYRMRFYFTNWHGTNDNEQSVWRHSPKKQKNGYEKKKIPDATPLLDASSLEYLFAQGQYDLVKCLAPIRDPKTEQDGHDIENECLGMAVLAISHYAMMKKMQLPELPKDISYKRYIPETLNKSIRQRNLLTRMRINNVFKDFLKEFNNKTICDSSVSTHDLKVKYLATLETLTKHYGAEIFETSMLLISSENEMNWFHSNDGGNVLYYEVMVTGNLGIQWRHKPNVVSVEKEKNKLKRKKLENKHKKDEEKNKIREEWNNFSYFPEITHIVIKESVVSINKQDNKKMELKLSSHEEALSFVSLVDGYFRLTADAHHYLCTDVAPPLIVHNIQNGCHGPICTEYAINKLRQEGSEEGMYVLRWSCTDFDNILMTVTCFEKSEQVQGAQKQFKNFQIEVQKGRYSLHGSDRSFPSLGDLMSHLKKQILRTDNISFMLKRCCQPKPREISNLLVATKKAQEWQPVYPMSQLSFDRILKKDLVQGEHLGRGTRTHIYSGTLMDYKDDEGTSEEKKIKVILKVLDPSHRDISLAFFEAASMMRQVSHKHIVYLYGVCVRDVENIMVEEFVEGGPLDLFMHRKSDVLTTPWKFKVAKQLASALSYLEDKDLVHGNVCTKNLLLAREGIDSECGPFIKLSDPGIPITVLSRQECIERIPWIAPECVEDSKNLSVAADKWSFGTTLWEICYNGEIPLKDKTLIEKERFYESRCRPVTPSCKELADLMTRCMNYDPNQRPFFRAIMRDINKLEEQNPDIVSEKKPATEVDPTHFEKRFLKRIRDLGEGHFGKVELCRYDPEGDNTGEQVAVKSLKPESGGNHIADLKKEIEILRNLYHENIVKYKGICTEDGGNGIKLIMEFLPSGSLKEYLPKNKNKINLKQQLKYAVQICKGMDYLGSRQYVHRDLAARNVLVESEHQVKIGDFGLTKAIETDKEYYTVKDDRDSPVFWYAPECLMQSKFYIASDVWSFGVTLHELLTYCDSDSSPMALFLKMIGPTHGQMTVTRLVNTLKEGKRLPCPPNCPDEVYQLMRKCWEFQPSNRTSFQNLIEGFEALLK
Procedure: as §1

ROS1 = ROS1 (Homo sapiens (Human), UniProt P08922); assay: KINOMEscan kinase binding assay (DiscoveRx)
Procedure: as §1

[1] = system: T cell lymphoma Karpas-299 cell line (harboring endogenous NPM-ALK fusion gene); assay: Karpas-299 cell proliferation assay (CellTiter-Glo); type: cell-based; details: Homo sapiens, 72 hours incubation, read-out: Karpas 299 cell proli. IC50
KM12 cells = assay: Caspase activity assay / PARP western blot; type: cell-based; details: 72 hours
Procedure: KM12 cells were maintained in DMEM medium supplemented with 10% fetal bovine serum and antibiotics. 500,000 cells were seeded in 12-well plate and various concentration of compounds were introduced for 72 hours For staurosporine treatment, 500 nM of STS were added at time of 60 hours and incubation of 12 hours as a positive control. All the cells were collected and washed with 1×PBS twice and then lysed in a lysis buffer (20 mM HEPES, 150 mM NaCl, 10 mM KCl, 5 mM EDTA, 1% NP40) supplemented with Halt protease and phosphatase inhibitors (Thermo Scientific). For caspase assays, around 20 μL (20 μg) of cell lysate were incubated with 20 μL of caspase3 glo reagent (Promega), measuring enzyme activity by the release of luminescence after 20 min incubation at 37° C. For western blotting, cell lysates were boiled and analyzed by SDS-PAGE/immunoblotting using PARP, or actin antibodies.

[2] = system: Essential thrombocythemia cell line SET-2 cells (harboring endogenous JAK2 point mutation); assay: SET-2 cell proliferation assay (CellTiter-Glo); type: cell-based; details: Homo sapiens, 72 hours incubation, read-out: SET2 cell proli. IC50
JAK2 = JAK2 (Homo sapiens (Human), UniProt O60674); assay: KINOMEscan kinase binding assay (DiscoveRx)
Procedure: (§2) For most assays, kinase-tagged T7 phage strains were prepared in an E. coli host derived from the BL21 strain. E. coli were grown to log-phase and infected with T7 phage and incubated with shaking at 32° C. until lysis. The lysates were centrifuged and filtered to remove cell debris. The remaining kinases were produced in HEK-293 cells and subsequently tagged with DNA for qPCR detection. […] The liganded beads were blocked with excess biotin and washed with blocking buffer (SeaBlock (Pierce), 1% BSA, 0.05% Tween 20, 1 mM DTT) to remove unbound ligand and to reduce nonspecific binding. […] All reactions were performed in polystyrene 96-well plates in a final volume of 0.135 mL. […] The kinase concentration in the eluates was measured by qPCR.

ALK = ALK (Homo sapiens (Human), UniProt Q9UM73); assay: KINOMEscan kinase binding assay (DiscoveRx)
Chain of ALK (Q9UM73 19-1620): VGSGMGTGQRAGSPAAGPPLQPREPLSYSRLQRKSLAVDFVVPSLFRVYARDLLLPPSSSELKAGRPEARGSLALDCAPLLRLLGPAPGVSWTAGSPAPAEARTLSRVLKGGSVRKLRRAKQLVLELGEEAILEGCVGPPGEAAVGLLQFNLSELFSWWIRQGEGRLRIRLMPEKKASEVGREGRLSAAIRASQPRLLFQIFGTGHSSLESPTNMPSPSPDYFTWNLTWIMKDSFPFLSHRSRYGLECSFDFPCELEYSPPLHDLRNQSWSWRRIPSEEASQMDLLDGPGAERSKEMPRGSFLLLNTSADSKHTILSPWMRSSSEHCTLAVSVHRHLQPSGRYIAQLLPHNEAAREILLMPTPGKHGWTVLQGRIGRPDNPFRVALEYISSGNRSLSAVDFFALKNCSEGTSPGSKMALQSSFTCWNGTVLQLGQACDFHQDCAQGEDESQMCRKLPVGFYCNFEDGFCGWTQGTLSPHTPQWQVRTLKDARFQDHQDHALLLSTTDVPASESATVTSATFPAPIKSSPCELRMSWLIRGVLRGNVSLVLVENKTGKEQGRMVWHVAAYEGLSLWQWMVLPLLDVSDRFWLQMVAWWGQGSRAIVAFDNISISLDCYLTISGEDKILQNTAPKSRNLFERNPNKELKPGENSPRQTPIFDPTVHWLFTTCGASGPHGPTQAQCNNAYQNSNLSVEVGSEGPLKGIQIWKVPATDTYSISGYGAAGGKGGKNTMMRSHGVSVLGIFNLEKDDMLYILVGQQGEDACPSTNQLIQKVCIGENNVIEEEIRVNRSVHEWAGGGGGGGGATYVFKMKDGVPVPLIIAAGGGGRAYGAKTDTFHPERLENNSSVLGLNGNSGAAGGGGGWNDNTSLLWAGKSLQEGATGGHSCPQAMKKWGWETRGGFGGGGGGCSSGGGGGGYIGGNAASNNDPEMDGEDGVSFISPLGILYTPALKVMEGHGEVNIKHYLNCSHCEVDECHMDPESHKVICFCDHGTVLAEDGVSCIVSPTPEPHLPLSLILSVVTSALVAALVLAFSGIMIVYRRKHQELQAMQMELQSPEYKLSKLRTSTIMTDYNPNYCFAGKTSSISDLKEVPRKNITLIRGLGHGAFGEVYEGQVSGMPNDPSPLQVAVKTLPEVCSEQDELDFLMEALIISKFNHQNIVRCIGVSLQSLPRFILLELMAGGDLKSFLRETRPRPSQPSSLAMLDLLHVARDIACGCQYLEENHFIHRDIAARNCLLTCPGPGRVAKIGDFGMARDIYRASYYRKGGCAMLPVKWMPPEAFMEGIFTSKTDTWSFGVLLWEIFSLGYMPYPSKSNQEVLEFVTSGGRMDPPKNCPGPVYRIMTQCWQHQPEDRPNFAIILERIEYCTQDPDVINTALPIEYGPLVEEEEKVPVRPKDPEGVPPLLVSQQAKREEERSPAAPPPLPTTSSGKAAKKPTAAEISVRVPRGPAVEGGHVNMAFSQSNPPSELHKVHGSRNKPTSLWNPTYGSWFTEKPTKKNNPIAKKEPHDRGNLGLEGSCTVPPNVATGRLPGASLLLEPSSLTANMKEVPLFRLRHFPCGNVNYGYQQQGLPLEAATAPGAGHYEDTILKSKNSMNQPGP
Procedure: as §2

AKT = assay: Downstream signal target phosphorylation assay in KM12 cells (western blot); type: cell-based; details: Homo sapiens, 5 hours treatment, read-out: inhibition of phosphorylation of AKT IC50
Procedure: (§3) Colorectal cell lines KM 12 (harboring endogenous TPM3-TRKA fusion gene) cells were cultured in DMEM medium, supplemented with 10% fetal bovine serum and 100 U/mL of penicillin/streptomycin. One million cells were seeded in 6-well plate for 24 hours before compounds treatment. Cells were washed with 1×PBS and collected after 5 hours treatment and lysed in RIPA buffer (50 mM Tris, pH 7.4, 150 mM NaCl, 1% NP-40, 0.5% Deoxycholate, 0.1% SDS) supplemented with 10 mM EDTA, Halt protease and phosphatase inhibitors (Thermo Scientific). Protein lysates (20 μg) were resolved on 4-12% Bolt Bis-Tris precasted gels with MES running buffer (Life Technologies), transferred to nitrocellulose membranes using Trans-Blot Turbo Transfer System (Bio-Rad) and detected with antibodies targeting phosphorylated TRK A (Cell Signaling Technology, Y496, Y680, Y681, clone C50F3; 1:1000 dilution), total TRK A (Santa Cruz Biotechnology, sc-11; clone C-14, 1:2000 dilution), phosphorylated AKT (Cell signaling, S473, D9E, #9271; 1:5000 dilution), total AKT (Cell Signaling Technology, 40D4; 1:2000 dilution), phosphorylated ERK (Cell Signaling Technology, Thr 202/204, D13.14.4E, #4370; 1:2000 dilution), total ERK (Cell Signaling Technology; 1:1000 dilution) and Tubulin (Sigma, T4026, 1:5000 dilution). […]

ERK = assay: as above; type: cell-based; details: Homo sapiens, 5 hours treatment, read-out: inhibition of phosphorylation of ERK IC50
Procedure: as §3

TPM3-TRKA = TPM3-TRKA (Homo sapiens (Human), UniProt P04629+P06753); assay: TRKA phosphorylation assay in KM12 cells (western blot); type: cell-based; details: 5 hours treatment, read-out: inhibition of autophosphorylation of TPM3-TRKA IC50
Procedure: as §3

[3] = system: Colorectal cell line KM12 (harboring endogenous TPM3-TRKA fusion gene); assay: KM12 cell proliferation assay (CellTiter-Glo); type: cell-based; details: Homo sapiens, 72 hours incubation, read-out: KM 12 cell prolif. IC50
Procedure: (§4) Colorectal cell lines KM 12 (harboring endogenous TPM3-TRKA fusion gene) cells were cultured in DMEM medium, supplemented with 10% fetal bovine serum and 100 U/mL of penicillin/streptomycin. 5000 cells were seeded in 384 well white plate for 24 hours before compounds treatment. Cell proliferation was measured using CellTiter-Glo luciferase-based ATP detection assay (Promega) following the manufactures's protocol after 72 hours incubation. IC50 determinations were performed using GraphPad Prism software (GraphPad, Inc., San Diego, Calif.).
as §4, with “Alternatively: Colorectal” for “Colorectal”, “line KM12” for “lines KM 12”, “penicillin/streptomycin. […]” for “penicillin/streptomycin.”

[4] = system: Ba/F3-EML4-ALK wild type cell line; assay: EML4-ALK Ba/F3 cell proliferation assay (CellTiter-Glo); type: cell-based; details: 48 hours incubation
Procedure: The EML4-ALK wild-type gene (variant 1) was synthesized at GenScript and cloned into pCDH-CMV-MCS-EF1-Puro plasmid (System Biosciences, Inc). Ba/F3-EML4-ALK wild type cell line was generated by infecting Ba/F3 cells with lentivirus containing EML4-ALK wide-type. Stable cell lines were selected by puromycin treatment, followed by IL-3 withdrawal. 5000 cells were seeded in 384 well white plate overnight before compound treatment. Cell proliferation was measured using CellTiter-Glo luciferase-based ATP detection assay (Promega) following the manufactures's protocol after 48 hours of various concentration of compound incubation. IC50 determinations were performed using GraphPad Prism software (GraphPad, Inc., San Diego, Calif.).

Chain of JAK3 (P52333 whole entry): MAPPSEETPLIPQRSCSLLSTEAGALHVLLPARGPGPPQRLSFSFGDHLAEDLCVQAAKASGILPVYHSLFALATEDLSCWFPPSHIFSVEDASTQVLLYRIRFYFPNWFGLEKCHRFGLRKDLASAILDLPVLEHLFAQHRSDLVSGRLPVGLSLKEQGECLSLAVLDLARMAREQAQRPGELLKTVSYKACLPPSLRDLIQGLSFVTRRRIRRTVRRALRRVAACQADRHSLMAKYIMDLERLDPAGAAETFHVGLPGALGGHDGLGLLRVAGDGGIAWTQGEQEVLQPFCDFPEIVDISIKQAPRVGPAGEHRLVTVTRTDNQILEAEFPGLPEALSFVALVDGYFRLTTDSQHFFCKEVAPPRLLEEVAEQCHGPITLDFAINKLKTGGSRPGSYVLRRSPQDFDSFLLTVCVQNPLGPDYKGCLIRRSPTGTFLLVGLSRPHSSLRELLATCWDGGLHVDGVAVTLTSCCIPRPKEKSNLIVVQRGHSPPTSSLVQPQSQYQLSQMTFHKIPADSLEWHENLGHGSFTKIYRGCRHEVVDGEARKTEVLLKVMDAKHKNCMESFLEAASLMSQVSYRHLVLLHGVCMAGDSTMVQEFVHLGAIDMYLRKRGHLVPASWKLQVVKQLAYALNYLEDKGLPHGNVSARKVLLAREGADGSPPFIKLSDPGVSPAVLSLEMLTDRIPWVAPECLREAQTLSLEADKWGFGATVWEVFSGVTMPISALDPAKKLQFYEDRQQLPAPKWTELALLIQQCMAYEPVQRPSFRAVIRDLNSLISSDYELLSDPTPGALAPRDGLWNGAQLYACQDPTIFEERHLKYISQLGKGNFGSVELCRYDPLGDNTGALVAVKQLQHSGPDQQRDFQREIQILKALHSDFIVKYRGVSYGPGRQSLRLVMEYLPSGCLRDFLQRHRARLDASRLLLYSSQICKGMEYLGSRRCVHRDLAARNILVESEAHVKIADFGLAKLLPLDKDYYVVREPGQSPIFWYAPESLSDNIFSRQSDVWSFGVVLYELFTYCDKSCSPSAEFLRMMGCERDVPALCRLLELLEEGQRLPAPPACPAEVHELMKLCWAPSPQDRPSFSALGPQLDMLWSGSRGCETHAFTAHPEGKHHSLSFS

Kd (JAK3) [nM] | Kd (TRKB) [nM] | Kd (PLK4 kinase) [nM] | Kd (TRKA) [nM] | Kd (JAK1) [nM] | Kd (ROS1) [nM] | IC50 [1] [nM] | Kd (JAK2) [nM] | Kd (ALK) [nM] | IC50 (AKT) [nM] | IC50 (ERK) [nM] | IC50 (TPM3-TRKA) [nM] | SMILES | apoptosis of KM 12 cells (KM12 cells) | IC50 [2] [nM] | IC50 [3] [nM] | EML4-ALK Ba/F3 cell proli. TC50 [4] [nM]
120 | 0.18 | 2.9 | 0.031 | > 1000 | 21 | 1000 | 4.8 | 80 | 2.8 | 2 | 1.07 | CN1Cc2cc(F)ccc2OCCNC(=O)c2cnn3ccc1nc23 [Example 20, 11-fluoro-14-methyl-6,7,13,14-tetrahydro-1,15-ethenopyrazolo[4,3-f][1,4,8,10]benzoxatriazacyclo-tridecin-4(5H)-one] | induced apoptosis | 2000 | 0.86 | –
33 | – | – | 6 | 280 | – | 3900 | 2.6 | 200 | – | – | – | CC1Oc2ccc3ncc(n3n2)C(=O)NCCOc2ccc(F)cc21 (centres unmarked) [Example 41, 10-fluoro-8-methyl-15,16-dihydro-8H-3,6-ethenoimidazo[5,1-f][1,10,4,7,8]benzodioxatriazacyclotridecin-17(14H)-one] | – | 1500 | 118 | –
4.3 | – | – | 0.065 | 65 | – | 832 | 0.15 | – | – | – | – | CC1Nc2ccn3ncc(c3n2)C(=O)NCCOc2ccc(F)cc21 (centres unmarked) [Example 51, 11-fluoro-13-methyl-6,7,13,14-tetrahydro-1,15-ethenopyrazolo[4,3-f][1,4,8,10]benzoxatriazacyclotridecin-4(5H)-one] | – | 425 | 3.2 | –
1.8 | – | – | 0.051 | 37 | 0.73 | 289 | 0.048 | 6.8 | – | – | – | C[C@H]1Nc2ccn3ncc(c3n2)C(=O)NCCOc2ccc(F)cc21 [Example 51-1, (13R)-11-fluoro-13-methyl-6,7,13,14-tetrahydro-1,15-ethenopyrazolo[4,3-f][1,4,8,10]benzoxatriazacyclotridecin-4(5H)-one] | – | 234 | 1.3 | 248
– | – | – | – | – | – | – | – | – | – | – | – | C[C@H]1CNC(=O)c2cnn3ccc(nc23)N[C@H](C)c2cc(F)ccc2O1 [Example 93, (7S,13R)-11-fluoro-7,13-dimethyl-6,7,13,14-tetrahydro-1,15-ethenopyrazolo[4,3-f][1,4,8,10]benzoxatriazacyclotridecin-4(5H)-one] | – | 242 | 0.5 | 21.1

SMILES | Kd (JAK3) [nM] | Kd (TRKB) [nM] | Kd (PLK4 kinase) [nM] | Kd (TRKA) [nM] | Kd (JAK1) [nM] | Kd (ROS1) [nM] | IC50 [1] [nM] | Kd (JAK2) [nM] | Kd (ALK) [nM] | IC50 (AKT) [nM] | IC50 (ERK) [nM] | IC50 (TPM3-TRKA) [nM] | apoptosis of KM 12 cells (KM12 cells) | IC50 [2] [nM] | IC50 [3] [nM] | EML4-ALK Ba/F3 cell proli. TC50 [4] [nM]
C[C@@H]1CNC(=O)c2cnn3ccc(nc23)N[C@H](C)c2cc(F)ccc2O1 [Example 92, (7R,13R)-11-fluoro-7,13-dimethyl-6,7,13,14-tetrahydro-1,15-ethenopyrazolo[4,3-f][1,4,8,10]benzoxatriazacyclotridecin-4(5H)-one] | – | – | – | – | – | – | 88.7 | – | – | – | – | – | – | 142 | 0.3 | 78.6
